Experimental data as given in patent US11572369B2, “Bicyclic pyridine compositions and methods of using the same for cancer therapy” (UNIVERSITY OF SOUTH CAROLINA, priority 2019, dated 2023).

Tests used:
Test in all cases: KINOMEscan
Assay type in all cases: binding
Conditions in all cases: 2000 nM
MAP3K3 = MAP3K3 (Homo sapiens, UniProt Q99759)
[1] = biological target: T1, RSK2(Kin.Dom.2-C-terminal) (Homo sapiens, UniProt P51812)
T1 construct: RSK2(Kin.Dom.2); purchased DiscoveRx (KINOMEscan scanMAX panel)

MYO3B = biological target: T2, MYO3B (Homo sapiens, UniProt Q8WXR4)
T2 construct: DNA label (for qPCR read-out); purchased KINOMEscan scanMAX panel (DiscoveRx)

PAK7 = biological target: T3, PAK7 (Homo sapiens, UniProt Q9P286)
T3 construct: purchased DiscoverX (KINOMEscan service)

DCAMKL3 = biological target: T4, DCAMKL3 (Homo sapiens, UniProt Q9C098)
T4 construct: DNA label (qPCR read-out); purchased KINOMEscan (DiscoveRx) panel

CDK4 = biological target: T5, CDK4 (Homo sapiens, UniProt P11802)
T5 construct: purchased DiscoverX (KINOMEscan service)

KIT(D816V) = biological target: T6, KIT(D816V) (Homo sapiens, UniProt P10721, D816V)
T6 construct: DNA label (for qPCR read-out); purchased DiscoveRx (KINOMEscan scanMAX panel)

HIPK2 = biological target: T7, HIPK2 (Homo sapiens, UniProt Q9H2X6)
T7 construct: DNA label (for qPCR read-out); purchased DiscoveRx (KINOMEscan scanMAX panel, contract assay)

FGFR3 = biological target: T8, FGFR3 (Homo sapiens, UniProt P22607)
T8 construct: purchased DiscoveRx (KINOMEscan scanMAX panel)

HCK = biological target: T9, HCK (Homo sapiens, UniProt P08631)
T9 construct: DNA label (for qPCR read-out); purchased DiscoveRx (KINOMEscan scanMAX panel, contract assay)

WEE1 = biological target: T10, WEE1 (Homo sapiens, UniProt P30291)
T10 construct: purchased KINOMEscan (DiscoveRx) panel service

PIK3CA(M1043I) = biological target: T11, PIK3CA(M1043I) (Homo sapiens, UniProt P42336, M1043I)
T11 construct: DNA label; purchased DiscoveRx (KINOMEscan scanMAX panel)

[2] = biological target: T12, EGFR(L747-S752del, P753S) (Homo sapiens, UniProt P00533, DEL747-752/P753S)
T12 construct: purchased DiscoveRx (KINOMEscan scanMAX panel)

p38-gamma = biological target: T13, p38-gamma (Homo sapiens, UniProt P53778)
T13 construct: purchased DiscoverX (KINOMEscan service)

MLK2 = biological target: T14, MLK2 (Homo sapiens, UniProt Q02779)
T14 construct: DNA label (qPCR read-out); purchased KINOMEscan scanMAX panel (DiscoveRx)

TNIK = biological target: T15, TNIK (Homo sapiens, UniProt Q9UKE5)
T15 construct: DNA label (qPCR read-out); purchased KINOMEscan (DiscoveRx) ScanMAX panel

EPHB1 = biological target: T16, EPHB1 (Homo sapiens, UniProt P54762)
T16 construct: purchased DiscoveRx (KINOMEscan scanMAX panel)

GRK7 = biological target: T17, GRK7 (Homo sapiens, UniProt Q8WTQ7)
T17 construct: DNA label (for qPCR read-out); purchased DiscoveRx (KINOMEscan scanMAX panel, contract assay)

BUB1 = biological target: T18, BUB1 (Homo sapiens, UniProt O43683)
T18 construct: DNA label (for qPCR read-out); purchased KINOMEscan scanMAX panel (DiscoveRx)

SRPK3 = biological target: T19, SRPK3 (Homo sapiens, UniProt Q9UPE1)
T19 construct: purchased KINOMEscan (DiscoveRx)

PRKCE = biological target: T20, PRKCE (Homo sapiens, UniProt Q02156)
T20 construct: purchased DiscoveRx (KINOMEscan scanMAX panel)

SGK3 = biological target: T21, SGK3 (Homo sapiens, UniProt Q96BR1)
T21 construct: purchased KINOMEscan (DiscoveRx)

CAMK1 = biological target: T22, CAMK1 (Homo sapiens, UniProt Q14012)
T22 construct: DNA label (qPCR read-out); purchased KINOMEscan (ScanMAX panel service)

CSF1R = biological target: T23, CSF1R (Homo sapiens, UniProt P07333)
T23 construct: DNA label (for qPCR read-out); purchased DiscoveRx (KINOMEscan scanMAX service)

DAPK1 = biological target: T24, DAPK1 (Homo sapiens, UniProt P53355)
T24 construct: DNA label; purchased DiscoveRx (KINOMEscan scanMAX panel)

WNK3 = biological target: T25, WNK3 (Homo sapiens, UniProt Q9BYP7)
T25 construct: purchased KINOMEscan (DiscoveRx) panel service

[3] = biological target: T26, RPS6KA4(Kin.Dom.1-N-terminal) (Homo sapiens, UniProt O75676)
T26 construct: Kin.Dom.1; DNA label (qPCR read-out); purchased DiscoveRx (KINOMEscan ScanMAX panel)

MRCKB = biological target: T27, MRCKB (Homo sapiens, UniProt Q9Y5S2)
T27 construct: DNA label (qPCR read-out); purchased KINOMEscan scanMAX panel (DiscoveRx)

PLK1 = biological target: T28, PLK1 (Homo sapiens, UniProt P53350)
T28 construct: purchased DiscoveRx (KINOMEscan scanMAX panel)

MAPKAPK5 = MAPKAPK5 (Homo sapiens, UniProt Q8IW41)
AURKC = biological target: T29, AURKC (Homo sapiens, UniProt Q9UQB9)
T29 construct: DNA label (qPCR read-out); purchased KINOMEscan scanMAX panel (DiscoveRx)

IRAK1 = biological target: T30, IRAK1 (Homo sapiens, UniProt P51617)
T30 construct: DNA label (qPCR read-out); purchased KINOMEscan (DiscoveRx) ScanMAX panel

LIMK2 = biological target: T31, LIMK2 (Homo sapiens, UniProt P53671)
T31 construct: purchased KINOMEscan (DiscoveRx) panel service

SIK2 = biological target: T32, SIK2 (Homo sapiens, UniProt Q9H0K1)
T32 construct: purchased KINOMEscan (DiscoveRx)

RIPK1 = biological target: T33, RIPK1 (Homo sapiens, UniProt Q13546)
T33 construct: DNA label (qPCR read-out); purchased DiscoveRx (KINOMEscan ScanMAX panel)

T30 sequence (P51617 whole entry): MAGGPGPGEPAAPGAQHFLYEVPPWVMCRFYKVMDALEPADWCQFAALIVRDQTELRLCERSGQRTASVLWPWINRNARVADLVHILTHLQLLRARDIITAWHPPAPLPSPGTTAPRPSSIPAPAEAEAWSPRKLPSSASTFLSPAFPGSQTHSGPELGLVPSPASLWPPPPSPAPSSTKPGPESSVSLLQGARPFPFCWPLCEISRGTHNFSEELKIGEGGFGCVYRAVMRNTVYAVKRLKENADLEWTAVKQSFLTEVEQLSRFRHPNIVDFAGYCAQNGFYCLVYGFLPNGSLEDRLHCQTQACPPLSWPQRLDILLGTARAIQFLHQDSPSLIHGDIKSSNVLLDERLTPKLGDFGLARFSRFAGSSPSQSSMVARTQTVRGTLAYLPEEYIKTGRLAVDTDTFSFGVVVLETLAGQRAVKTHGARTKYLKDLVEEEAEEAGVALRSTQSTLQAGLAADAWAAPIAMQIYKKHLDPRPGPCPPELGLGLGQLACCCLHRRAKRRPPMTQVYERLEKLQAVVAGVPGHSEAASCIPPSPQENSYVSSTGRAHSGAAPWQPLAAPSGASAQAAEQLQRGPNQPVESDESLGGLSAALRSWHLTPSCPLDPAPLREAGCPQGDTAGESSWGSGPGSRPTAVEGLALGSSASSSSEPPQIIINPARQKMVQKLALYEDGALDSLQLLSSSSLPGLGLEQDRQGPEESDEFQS
T7 sequence (Q9H2X6 whole entry): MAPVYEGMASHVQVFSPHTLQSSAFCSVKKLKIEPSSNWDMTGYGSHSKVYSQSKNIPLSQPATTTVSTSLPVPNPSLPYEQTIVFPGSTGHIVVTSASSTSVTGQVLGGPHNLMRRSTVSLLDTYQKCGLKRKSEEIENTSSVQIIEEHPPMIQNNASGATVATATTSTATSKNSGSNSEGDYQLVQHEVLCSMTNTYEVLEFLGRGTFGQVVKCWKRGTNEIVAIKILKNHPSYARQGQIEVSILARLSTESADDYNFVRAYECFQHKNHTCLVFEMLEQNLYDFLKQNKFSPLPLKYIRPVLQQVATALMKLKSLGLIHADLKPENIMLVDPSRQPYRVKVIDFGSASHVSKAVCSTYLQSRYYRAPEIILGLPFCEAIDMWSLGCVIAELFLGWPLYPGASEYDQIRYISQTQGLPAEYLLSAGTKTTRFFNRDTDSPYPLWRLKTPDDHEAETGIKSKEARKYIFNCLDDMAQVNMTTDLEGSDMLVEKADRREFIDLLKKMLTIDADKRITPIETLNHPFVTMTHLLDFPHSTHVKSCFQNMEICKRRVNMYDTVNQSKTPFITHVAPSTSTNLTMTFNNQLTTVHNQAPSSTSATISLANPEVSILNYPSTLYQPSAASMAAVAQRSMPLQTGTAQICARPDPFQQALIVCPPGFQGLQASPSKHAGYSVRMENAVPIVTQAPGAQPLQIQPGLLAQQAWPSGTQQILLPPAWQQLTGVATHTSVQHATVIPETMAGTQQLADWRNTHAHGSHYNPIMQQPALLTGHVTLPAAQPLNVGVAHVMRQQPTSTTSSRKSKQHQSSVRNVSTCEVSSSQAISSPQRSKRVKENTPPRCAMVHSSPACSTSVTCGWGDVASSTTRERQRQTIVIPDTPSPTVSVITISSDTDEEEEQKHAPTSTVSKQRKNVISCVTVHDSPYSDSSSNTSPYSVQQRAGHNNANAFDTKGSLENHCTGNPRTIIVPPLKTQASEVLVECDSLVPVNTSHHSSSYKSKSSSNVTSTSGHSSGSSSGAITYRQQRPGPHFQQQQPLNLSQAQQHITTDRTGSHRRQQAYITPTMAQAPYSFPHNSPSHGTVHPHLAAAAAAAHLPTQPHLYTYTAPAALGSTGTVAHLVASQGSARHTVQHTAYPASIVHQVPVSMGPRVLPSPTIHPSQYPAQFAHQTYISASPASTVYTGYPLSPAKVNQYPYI
MAP3K3, sequence (Q99759 whole entry): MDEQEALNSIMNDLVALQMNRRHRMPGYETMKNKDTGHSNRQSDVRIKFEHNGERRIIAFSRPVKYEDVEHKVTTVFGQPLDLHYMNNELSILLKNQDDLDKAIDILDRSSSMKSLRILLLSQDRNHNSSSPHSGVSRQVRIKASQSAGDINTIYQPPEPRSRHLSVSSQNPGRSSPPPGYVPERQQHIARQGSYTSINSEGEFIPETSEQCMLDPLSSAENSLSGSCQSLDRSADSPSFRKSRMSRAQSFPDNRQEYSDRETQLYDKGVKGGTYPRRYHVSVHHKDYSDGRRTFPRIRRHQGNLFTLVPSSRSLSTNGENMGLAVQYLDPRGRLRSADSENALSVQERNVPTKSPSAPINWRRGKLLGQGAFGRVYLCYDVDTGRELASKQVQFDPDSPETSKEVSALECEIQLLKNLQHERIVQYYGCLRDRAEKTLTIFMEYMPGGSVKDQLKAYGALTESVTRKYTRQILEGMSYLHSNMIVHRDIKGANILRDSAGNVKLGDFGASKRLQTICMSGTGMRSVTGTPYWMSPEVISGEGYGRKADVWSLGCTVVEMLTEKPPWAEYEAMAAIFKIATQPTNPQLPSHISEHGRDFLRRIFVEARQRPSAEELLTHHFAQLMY
T6 sequence (P10721 26-976 D816V): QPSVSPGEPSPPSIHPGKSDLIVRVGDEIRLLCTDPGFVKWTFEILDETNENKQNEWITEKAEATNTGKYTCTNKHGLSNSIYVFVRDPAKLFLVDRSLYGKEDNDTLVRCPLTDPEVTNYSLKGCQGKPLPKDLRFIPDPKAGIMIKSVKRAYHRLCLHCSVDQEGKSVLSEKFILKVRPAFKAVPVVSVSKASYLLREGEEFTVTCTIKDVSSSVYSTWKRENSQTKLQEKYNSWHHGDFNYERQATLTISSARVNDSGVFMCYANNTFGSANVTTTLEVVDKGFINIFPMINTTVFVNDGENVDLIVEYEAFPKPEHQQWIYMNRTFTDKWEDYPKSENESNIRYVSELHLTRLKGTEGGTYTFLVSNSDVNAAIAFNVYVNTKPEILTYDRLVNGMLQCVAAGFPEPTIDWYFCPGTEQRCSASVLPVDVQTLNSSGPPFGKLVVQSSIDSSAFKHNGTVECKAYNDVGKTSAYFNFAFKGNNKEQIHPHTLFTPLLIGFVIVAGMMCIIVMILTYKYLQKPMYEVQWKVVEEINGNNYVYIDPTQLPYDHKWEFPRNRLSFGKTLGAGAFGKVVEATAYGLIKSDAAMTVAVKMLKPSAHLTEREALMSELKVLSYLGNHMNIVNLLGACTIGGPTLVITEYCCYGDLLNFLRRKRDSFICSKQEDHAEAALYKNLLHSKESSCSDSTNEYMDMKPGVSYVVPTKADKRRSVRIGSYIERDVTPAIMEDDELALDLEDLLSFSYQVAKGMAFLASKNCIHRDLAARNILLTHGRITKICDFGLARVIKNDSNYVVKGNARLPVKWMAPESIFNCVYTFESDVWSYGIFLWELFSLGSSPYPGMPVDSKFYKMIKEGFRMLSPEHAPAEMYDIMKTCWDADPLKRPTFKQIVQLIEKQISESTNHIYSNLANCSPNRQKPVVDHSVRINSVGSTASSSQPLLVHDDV
T3 sequence (Q9P286 whole entry): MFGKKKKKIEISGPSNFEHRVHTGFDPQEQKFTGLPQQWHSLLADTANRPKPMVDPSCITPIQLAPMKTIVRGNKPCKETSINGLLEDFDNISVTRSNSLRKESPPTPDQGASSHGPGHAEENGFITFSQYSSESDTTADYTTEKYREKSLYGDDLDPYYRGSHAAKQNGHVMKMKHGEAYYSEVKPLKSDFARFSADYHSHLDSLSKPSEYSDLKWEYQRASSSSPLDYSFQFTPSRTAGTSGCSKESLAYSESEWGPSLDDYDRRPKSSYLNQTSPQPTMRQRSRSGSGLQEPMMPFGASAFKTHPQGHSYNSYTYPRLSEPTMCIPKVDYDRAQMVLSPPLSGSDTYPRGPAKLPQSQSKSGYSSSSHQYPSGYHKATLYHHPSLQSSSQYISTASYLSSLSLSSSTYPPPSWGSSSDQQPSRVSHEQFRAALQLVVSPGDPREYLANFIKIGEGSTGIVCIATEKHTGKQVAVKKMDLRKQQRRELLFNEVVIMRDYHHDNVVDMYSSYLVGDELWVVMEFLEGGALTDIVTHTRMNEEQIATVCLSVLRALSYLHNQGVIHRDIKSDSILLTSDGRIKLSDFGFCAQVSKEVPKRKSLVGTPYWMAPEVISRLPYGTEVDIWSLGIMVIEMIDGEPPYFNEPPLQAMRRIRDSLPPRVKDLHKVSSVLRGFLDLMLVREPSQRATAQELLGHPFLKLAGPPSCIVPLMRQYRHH
T9 sequence (P08631 whole entry): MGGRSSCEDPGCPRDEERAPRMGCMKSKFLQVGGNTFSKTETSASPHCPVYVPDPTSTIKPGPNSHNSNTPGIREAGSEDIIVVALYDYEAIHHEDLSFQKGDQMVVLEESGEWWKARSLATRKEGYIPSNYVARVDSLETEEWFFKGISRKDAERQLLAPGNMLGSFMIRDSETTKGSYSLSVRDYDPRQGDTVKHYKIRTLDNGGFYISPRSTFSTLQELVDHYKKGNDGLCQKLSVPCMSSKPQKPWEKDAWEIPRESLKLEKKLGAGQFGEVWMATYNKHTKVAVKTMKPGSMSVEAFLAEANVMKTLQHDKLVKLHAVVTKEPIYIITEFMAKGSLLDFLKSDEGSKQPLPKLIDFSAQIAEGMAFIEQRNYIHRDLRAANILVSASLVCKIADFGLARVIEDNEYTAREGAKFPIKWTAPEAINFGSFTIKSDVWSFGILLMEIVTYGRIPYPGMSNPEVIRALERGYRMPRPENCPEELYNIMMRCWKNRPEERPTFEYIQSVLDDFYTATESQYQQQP
T1 sequence (P51812 422-679 limits assumed): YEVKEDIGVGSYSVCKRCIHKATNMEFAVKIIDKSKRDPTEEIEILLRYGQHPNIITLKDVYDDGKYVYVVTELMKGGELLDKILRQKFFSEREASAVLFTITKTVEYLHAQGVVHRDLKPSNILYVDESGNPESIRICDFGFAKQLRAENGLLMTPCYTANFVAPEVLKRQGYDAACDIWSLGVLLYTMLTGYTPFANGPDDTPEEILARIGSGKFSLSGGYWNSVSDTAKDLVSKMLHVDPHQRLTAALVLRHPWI

SMILES: CN(C)C(=O)c1ccc(N2CCCN(c3ccnc4sc(C(N)=O)c(N)c34)CC2)cc1 [15u, 3-amino-4-(4-(4-(dimethylcarbamoyl)phenyl)-1,4-diazepan-1-yl)thieno[2,3-b]pyridine-2-carboxamide]
- % Ctrl (MAP3K3): 100 % Ctrl
- % Ctrl [1]: 94 % Ctrl
- % Ctrl (MYO3B): 87 % Ctrl
- % Ctrl (PAK7): 100 % Ctrl
- % Ctrl (DCAMKL3): 91 % Ctrl
- % Ctrl (CDK4): 73 % Ctrl
- % Ctrl (KIT(D816V)): 93 % Ctrl
- % Ctrl (HIPK2): 100 % Ctrl
- % Ctrl (FGFR3): 98 % Ctrl
- % Ctrl (HCK): 96 % Ctrl
- % Ctrl (WEE1): 100 % Ctrl
- % Ctrl (PIK3CA(M1043I)): 96 % Ctrl
- % Ctrl [2]: 99 % Ctrl
- % Ctrl (p38-gamma): 98 % Ctrl
- % Ctrl (MLK2): 100 % Ctrl
- % Ctrl (TNIK): 100 % Ctrl
- % Ctrl (EPHB1): 88 % Ctrl
- % Ctrl (GRK7): 100 % Ctrl
- % Ctrl (BUB1): 88 % Ctrl
- % Ctrl (SRPK3): 65 % Ctrl
- % Ctrl (PRKCE): 93 % Ctrl
- % Ctrl (SGK3): 79 % Ctrl
- % Ctrl (CAMK1): 83 % Ctrl
- % Ctrl (CSF1R): 98 % Ctrl
- % Ctrl (DAPK1): 92 % Ctrl
- % Ctrl (WNK3): 97 % Ctrl
- % Ctrl [3]: 96 % Ctrl
- % Ctrl (MRCKB): 96 % Ctrl
- % Ctrl (PLK1): 95 % Ctrl
- % Ctrl (MAPKAPK5): 100 % Ctrl
- % Ctrl (AURKC): 100 % Ctrl
- % Ctrl (IRAK1): 94 % Ctrl
- % Ctrl (LIMK2): 91 % Ctrl
- % Ctrl (SIK2): 96 % Ctrl
- % Ctrl (RIPK1): 99 % Ctrl

SMILES: [2H]C([2H])([2H])N(C(=O)c1ccc(N2CCCN(c3ccnc4sc(C(N)=O)c(N)c34)CC2)cc1)C([2H])([2H])[2H] [15u_D6, 3-amino-4-(4-(4-(bis(methyl-d3)carbamoyl)phenyl)-1,4-diazepan-1-yl)thieno[2,3-b]pyridine-2-carboxamide]
- % Ctrl (MAP3K3): 72 % Ctrl
- % Ctrl [1]: 92 % Ctrl
- % Ctrl (MYO3B): 100 % Ctrl
- % Ctrl (PAK7): 80 % Ctrl
- % Ctrl (DCAMKL3): 100 % Ctrl
- % Ctrl (CDK4): 71 % Ctrl
- % Ctrl (KIT(D816V)): 79 % Ctrl
- % Ctrl (HIPK2): 81 % Ctrl
- % Ctrl (FGFR3): 99 % Ctrl
- % Ctrl (HCK): 96 % Ctrl
- % Ctrl (WEE1): 88 % Ctrl
- % Ctrl (PIK3CA(M1043I)): 95 % Ctrl
- % Ctrl [2]: 100 % Ctrl
- % Ctrl (p38-gamma): 100 % Ctrl
- % Ctrl (MLK2): 95 % Ctrl
- % Ctrl (TNIK): 91 % Ctrl
- % Ctrl (EPHB1): 88 % Ctrl
- % Ctrl (GRK7): 92 % Ctrl
- % Ctrl (BUB1): 80 % Ctrl
- % Ctrl (SRPK3): 96 % Ctrl
- % Ctrl (PRKCE): 97 % Ctrl
- % Ctrl (SGK3): 80 % Ctrl
- % Ctrl (CAMK1): 95 % Ctrl
- % Ctrl (CSF1R): 95 % Ctrl
- % Ctrl (DAPK1): 88 % Ctrl
- % Ctrl (WNK3): 100 % Ctrl
- % Ctrl [3]: 100 % Ctrl
- % Ctrl (MRCKB): 100 % Ctrl
- % Ctrl (PLK1): 89 % Ctrl
- % Ctrl (MAPKAPK5): 64 % Ctrl
- % Ctrl (AURKC): 100 % Ctrl
- % Ctrl (IRAK1): 84 % Ctrl
- % Ctrl (LIMK2): 98 % Ctrl
- % Ctrl (SIK2): 100 % Ctrl
- % Ctrl (RIPK1): 100 % Ctrl
